Results taken from PubChem BioAssay (NCI).
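Five compound concentrations were applied to cells in 96-well plates for 48 hours; endpoints were derived by simple linear interpolation of the resulting dose-response curve. TGI: total growth inhibition.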

What was measured:
Assay in all cases: NCI anticancer screen, dose series, 48 h
MDA-MB-231 breast = tested on: MDA-MB-231 breast
HOP-92 NSCLC = tested on: HOP-92 NSCLC
CCRF-CEM leukemia = tested on: CCRF-CEM leukemia
HT29 colon = tested on: HT29 colon
OVCAR-5 ovarian = tested on: OVCAR-5 ovarian
UACC-62 melanoma = tested on: UACC-62 melanoma
TK-10 renal = tested on: TK-10 renal
EKVX NSCLC = tested on: EKVX NSCLC
SF-268 CNS = tested on: SF-268 CNS
PC-3 prostate = tested on: PC-3 prostate
U251 CNS = tested on: U251 CNS
SK-MEL-2 melanoma = tested on: SK-MEL-2 melanoma
HOP-62 NSCLC = tested on: HOP-62 NSCLC
MDA-N = tested on: MDA-N
HCC-2998 colon = tested on: HCC-2998 colon
M14 melanoma = tested on: M14 melanoma
SF-295 CNS = tested on: SF-295 CNS
MOLT-4 leukemia = tested on: MOLT-4 leukemia
NCI-H226 lung = tested on: NCI-H226 lung
786-0 renal = tested on: 786-0 renal

`N#Cc1c(O)c(N=Nc2ccc(Cl)cc2)c(=O)n2c1[nH]c1ccccc12` was tested, and the TGI (MDA-MB-231 breast) was > 100 µM, the TGI (HOP-92 NSCLC) was 76.9 µM and the TGI (CCRF-CEM leukemia) was > 100 µM. The TGI (HT29 colon) was > 100 µM, the TGI (OVCAR-5 ovarian) was > 100 µM and the TGI (UACC-62 melanoma) was > 100 µM. For the same compound, the TGI (TK-10 renal) was > 100 µM, the TGI (EKVX NSCLC) was > 100 µM and the TGI (SF-268 CNS) was > 100 µM. For the same compound, the TGI (PC-3 prostate) was > 100 µM, the TGI (U251 CNS) was > 100 µM and the TGI (SK-MEL-2 melanoma) was > 100 µM. The TGI (HOP-62 NSCLC) was 65.3 µM, the TGI (MDA-N) was > 100 µM and the TGI (HCC-2998 colon) was > 100 µM. For the same compound, the TGI (M14 melanoma) was > 100 µM, the TGI (SF-295 CNS) was > 100 µM and the TGI (MOLT-4 leukemia) was > 100 µM. For the same compound, the TGI (NCI-H226 lung) was > 100 µM and the TGI (786-0 renal) was > 100 µM.
In the case of `O=C(NC(Nc1ccc(F)cc1)(C(F)(F)F)C(F)(F)F)C(C(F)(F)F)C(F)(F)F`, the TGI (MDA-MB-231 breast) is reported as > 100 µM, the TGI (HOP-92 NSCLC) is reported as > 100 µM and the TGI (CCRF-CEM leukemia) is reported as 19.7 µM. For the same compound, the TGI (HT29 colon) was > 100 µM, the TGI (OVCAR-5 ovarian) was > 100 µM and the TGI (UACC-62 melanoma) was > 100 µM. The TGI (TK-10 renal) was > 100 µM, the TGI (EKVX NSCLC) was > 100 µM and the TGI (SF-268 CNS) was > 100 µM. For the same compound, the TGI (PC-3 prostate) was > 100 µM, the TGI (U251 CNS) was > 100 µM and the TGI (SK-MEL-2 melanoma) was 25.2 µM. For the same compound, the TGI (HOP-62 NSCLC) was > 100 µM, the TGI (MDA-N) was > 100 µM and the TGI (HCC-2998 colon) was > 100 µM. The TGI (M14 melanoma) was > 100 µM, the TGI (SF-295 CNS) was > 100 µM and the TGI (MOLT-4 leukemia) was 36.2 µM. The TGI (NCI-H226 lung) was > 100 µM and the TGI (786-0 renal) was > 100 µM.
`COC(=O)[C@@H](Cc1ccccc1)N1O[C@]12CCCC[C@@H]2NC(=O)OC(C)(C)C` (stereo not given in full) gave a TGI (MDA-MB-231 breast) of 42.4 µM, a TGI (HOP-92 NSCLC) of 55.5 µM and a TGI (CCRF-CEM leukemia) of 35.9 µM. The TGI (HT29 colon) was 32.2 µM, the TGI (OVCAR-5 ovarian) was 71.7 µM and the TGI (UACC-62 melanoma) was 48.7 µM. It also gave a TGI (TK-10 renal) of 49 µM, a TGI (EKVX NSCLC) of 82.3 µM and a TGI (SF-268 CNS) of 34.9 µM. It also gave a TGI (PC-3 prostate) of 84.2 µM, a TGI (U251 CNS) of 77.9 µM and a TGI (SK-MEL-2 melanoma) of 49 µM. The TGI (HOP-62 NSCLC) was 38.2 µM, the TGI (MDA-N) was 39.1 µM and the TGI (HCC-2998 colon) was > 100 µM. The TGI (M14 melanoma) was 50.9 µM, the TGI (SF-295 CNS) was > 100 µM and the TGI (MOLT-4 leukemia) was > 100 µM. For the same compound, the TGI (NCI-H226 lung) was > 100 µM and the TGI (786-0 renal) was 51.3 µM.
For `N#Cc1c(O)cc(=O)n2c1[nH]c1ccccc12`, the TGI (MDA-MB-231 breast) was > 100 µM, the TGI (HOP-92 NSCLC) was > 100 µM and the TGI (CCRF-CEM leukemia) was > 100 µM. The TGI (HT29 colon) was > 100 µM, the TGI (OVCAR-5 ovarian) was > 100 µM and the TGI (UACC-62 melanoma) was > 100 µM. The TGI (TK-10 renal) was > 100 µM, the TGI (EKVX NSCLC) was > 100 µM and the TGI (SF-268 CNS) was > 100 µM. The TGI (PC-3 prostate) was > 100 µM, the TGI (U251 CNS) was > 100 µM and the TGI (SK-MEL-2 melanoma) was > 100 µM. For the same compound, the TGI (HOP-62 NSCLC) was > 100 µM, the TGI (MDA-N) was > 100 µM and the TGI (HCC-2998 colon) was > 100 µM. For the same compound, the TGI (M14 melanoma) was > 100 µM, the TGI (SF-295 CNS) was > 100 µM and the TGI (MOLT-4 leukemia) was > 100 µM. For the same compound, the TGI (NCI-H226 lung) was > 100 µM and the TGI (786-0 renal) was > 100 µM.
With `Fc1cccc(Cl)c1C1SCc2nc3cc4ccccc4cc3n21` (stereo not given) the TGI (MDA-MB-231 breast) was > 100 µM, the TGI (HOP-92 NSCLC) was 72.3 µM and the TGI (CCRF-CEM leukemia) was > 100 µM. The TGI (HT29 colon) was > 100 µM, the TGI (OVCAR-5 ovarian) was > 100 µM and the TGI (UACC-62 melanoma) was > 100 µM. The TGI (TK-10 renal) was > 100 µM, the TGI (EKVX NSCLC) was > 100 µM and the TGI (SF-268 CNS) was > 100 µM. The TGI (PC-3 prostate) was > 100 µM, the TGI (U251 CNS) was > 100 µM and the TGI (SK-MEL-2 melanoma) was > 100 µM. For the same compound, the TGI (HOP-62 NSCLC) was > 100 µM, the TGI (MDA-N) was > 100 µM and the TGI (HCC-2998 colon) was > 100 µM. For the same compound, the TGI (M14 melanoma) was > 100 µM, the TGI (SF-295 CNS) was > 100 µM and the TGI (MOLT-4 leukemia) was > 100 µM. For the same compound, the TGI (NCI-H226 lung) was > 100 µM and the TGI (786-0 renal) was > 100 µM.
`O=C1NC(=O)/C(=C/c2ccc(S(=O)(=O)N/N=C\C(O)C(O)C(O)C(O)CO)cc2)N1` (stereo not given) was tested, and the TGI (MDA-MB-231 breast) was > 100 µM, the TGI (HOP-92 NSCLC) was > 100 µM and the TGI (CCRF-CEM leukemia) was > 100 µM. The TGI (HT29 colon) was > 100 µM, the TGI (OVCAR-5 ovarian) was > 100 µM and the TGI (UACC-62 melanoma) was > 100 µM. For the same compound, the TGI (TK-10 renal) was > 100 µM, the TGI (EKVX NSCLC) was > 100 µM and the TGI (SF-268 CNS) was > 100 µM. For the same compound, the TGI (PC-3 prostate) was > 100 µM, the TGI (U251 CNS) was > 100 µM and the TGI (SK-MEL-2 melanoma) was > 100 µM. The TGI (HOP-62 NSCLC) was > 100 µM, the TGI (MDA-N) was > 100 µM and the TGI (HCC-2998 colon) was > 100 µM. The TGI (M14 melanoma) was > 100 µM, the TGI (SF-295 CNS) was > 100 µM and the TGI (MOLT-4 leukemia) was > 100 µM. The TGI (NCI-H226 lung) was > 100 µM and the TGI (786-0 renal) was > 100 µM.
Work on `CC(C)C(C/C=C1/CC(CO)(COC(=O)c2ccccc2)OC1=O)C(C)C` (stereo not given) yielded a TGI (MDA-MB-231 breast) of 32.8 µM, a TGI (HOP-92 NSCLC) of 35.8 µM and a TGI (CCRF-CEM leukemia) of 43.5 µM. The TGI (HT29 colon) was 36.4 µM, the TGI (OVCAR-5 ovarian) was 31.2 µM and the TGI (UACC-62 melanoma) was 67.1 µM. For the same compound, the TGI (TK-10 renal) was 32.3 µM, the TGI (EKVX NSCLC) was 35.9 µM and the TGI (SF-268 CNS) was 31.8 µM. For the same compound, the TGI (PC-3 prostate) was 28.1 µM, the TGI (U251 CNS) was 36.1 µM and the TGI (SK-MEL-2 melanoma) was > 100 µM. For the same compound, the TGI (HOP-62 NSCLC) was 22.4 µM, the TGI (MDA-N) was 31.2 µM and the TGI (HCC-2998 colon) was 40.8 µM. It also gave a TGI (M14 melanoma) of 32.2 µM, a TGI (SF-295 CNS) of 25.7 µM and a TGI (MOLT-4 leukemia) of 47 µM. The TGI (NCI-H226 lung) was 32.4 µM and the TGI (786-0 renal) was 23.2 µM.
`CC(=O)c1cccc(NC(=O)C(=O)C(c2cnc3ccc([N+](=O)[O-])cc3n2)[N+](=O)[O-])c1` (stereo not given) was tested, and the TGI (MDA-MB-231 breast) was > 100 µM, the TGI (HOP-92 NSCLC) was > 100 µM and the TGI (CCRF-CEM leukemia) was > 100 µM. The TGI (HT29 colon) was > 100 µM, the TGI (OVCAR-5 ovarian) was > 100 µM and the TGI (UACC-62 melanoma) was > 100 µM. For the same compound, the TGI (TK-10 renal) was > 100 µM, the TGI (EKVX NSCLC) was > 100 µM and the TGI (SF-268 CNS) was > 100 µM. For the same compound, the TGI (PC-3 prostate) was > 100 µM, the TGI (U251 CNS) was > 100 µM and the TGI (SK-MEL-2 melanoma) was > 100 µM. The TGI (HOP-62 NSCLC) was > 100 µM, the TGI (MDA-N) was > 100 µM and the TGI (HCC-2998 colon) was > 100 µM. For the same compound, the TGI (M14 melanoma) was > 100 µM, the TGI (SF-295 CNS) was > 100 µM and the TGI (MOLT-4 leukemia) was > 100 µM. The TGI (NCI-H226 lung) was > 100 µM and the TGI (786-0 renal) was > 100 µM.
In the case of `CO[C@@H]1C[C@H]2N3CC[C@@]2(c2cc4c(cc2C3)OCO4)[C@H]2O[C@@H]12`, the TGI (MDA-MB-231 breast) is reported as > 100 µM, the TGI (HOP-92 NSCLC) is reported as > 100 µM and the TGI (CCRF-CEM leukemia) is reported as > 100 µM. For the same compound, the TGI (HT29 colon) was > 100 µM, the TGI (OVCAR-5 ovarian) was > 100 µM and the TGI (UACC-62 melanoma) was > 100 µM. For the same compound, the TGI (TK-10 renal) was > 100 µM, the TGI (EKVX NSCLC) was > 100 µM and the TGI (SF-268 CNS) was > 100 µM. For the same compound, the TGI (PC-3 prostate) was > 100 µM, the TGI (U251 CNS) was > 100 µM and the TGI (SK-MEL-2 melanoma) was > 100 µM. For the same compound, the TGI (HOP-62 NSCLC) was > 100 µM, the TGI (MDA-N) was > 100 µM and the TGI (HCC-2998 colon) was > 100 µM. The TGI (M14 melanoma) was > 100 µM, the TGI (SF-295 CNS) was > 100 µM and the TGI (MOLT-4 leukemia) was > 100 µM. For the same compound, the TGI (NCI-H226 lung) was 4.59 µM and the TGI (786-0 renal) was > 100 µM.
